Data as given in ChEMBL document CHEMBL3885861, “Open TG-GATES”.

Species on record: Rattus norvegicus
Test: Open TG-GATES - Regimen: Single
Assay type: toxicity, organism-based, Sprague-Dawley
Design: regimen Single, gender Male, age 6 weeks
Settings: in vivo, po, 60 mg/kg, route gavage, dose level High; for APTT / Bas / Eos / Fbg / Hb / Ht / Lym / MCH / MCHC / MCV / Mono / Neu / PT / Plat / RBC / WBC: tissue Blood; for KIDNEY_L / KIDNEY_R / KIDNEY_TOTAL: tissue Kidney; for LIVER: tissue Liver; for ALT / AST / BUN / CRE / Cl / DBIL / GLC / IP / LDH / Na / RALB / TBIL / TC / TG / TP / gamma-GTP: tissue Plasma

Work on `CC/C(=C(\c1ccccc1)c1ccc(OCCN(C)C)cc1)c1ccccc1` [TAMOXIFEN] yielded a TERMINAL_BW (3 h) of 193.1 g, an APTT (3 h) of 16.1 s and a Bas (3 h) of 0%. It also gave an Eos (3 h) of 1%, a Fbg (3 h) of 259.8 mg/dL and a Hb (3 h) of 13.1 g/dL. The Ht (3 h) was 39.5%, the Lym (3 h) was 77.6% and the MCH (3 h) was 21.8 pg. It also gave an MCHC (3 h) of 33.3%, an MCV (3 h) of 65.7 fL and a Mono (3 h) of 3.8%. For the same compound, the Neu (3 h) was 17.4%, the PT (3 h) was 11.9 s and the Plat (3 h) was 112.1 x10_4/uL. It also gave an RBC (3 h) of 601.4 x10_4/ul, a WBC (3 h) of 80.5 x10_2/uL and a KIDNEY_L (3 h) of 0.9 g. It also gave a KIDNEY_R (3 h) of 0.9 g, a KIDNEY_TOTAL (3 h) of 1.7 g and an LIVER (3 h) of 8.3 g. It also gave an ALT (3 h) of 50.8 IU/L, an AST (3 h) of 82.6 IU/L and a BUN (3 h) of 9.4 mg/dL. For the same compound, the CRE (3 h) was 0.2 mg/dL, the Cl (3 h) was 106.8 meq/L and the DBIL (3 h) was 0.026 mg/dL. The GLC (3 h) was 169.2 mg/dL, the IP (3 h) was 9.5 mg/dL and the LDH (3 h) was 77 IU/L. It also gave a Na (3 h) of 140.8 meq/L, an RALB (3 h) of 2.6 g/dL and a TBIL (3 h) of 0.05 mg/dL. It also gave a TC (3 h) of 80 mg/dL, a TG (3 h) of 106.2 mg/dL and a TP (3 h) of 5.6 g/dL. It also gave a gamma-GTP (3 h) of 1 IU/L, a TERMINAL_BW (6 h) of 193.6 g and a Bas (6 h) of 0%. For the same compound, the Eos (6 h) was 0.8%, the Fbg (6 h) was 252.6 mg/dL and the Hb (6 h) was 12.8 g/dL. It also gave a Lym (6 h) of 78.8%, an MCH (6 h) of 21.5 pg and an MCHC (6 h) of 33.4%. The MCV (6 h) was 64.3 fL, the Mono (6 h) was 2.6% and the Neu (6 h) was 17.6%. For the same compound, the PT (6 h) was 12.2 s, the Plat (6 h) was 112.7 x10_4/uL and the RBC (6 h) was 595.6 x10_4/ul. It also gave a WBC (6 h) of 59.9 x10_2/uL, a KIDNEY_L (6 h) of 0.8 g and a KIDNEY_R (6 h) of 0.9 g. It also gave a KIDNEY_TOTAL (6 h) of 1.7 g, an LIVER (6 h) of 7.5 g and an ALT (6 h) of 38.8 IU/L. The AST (6 h) was 74.2 IU/L, the BUN (6 h) was 7.6 mg/dL and the CRE (6 h) was 0.2 mg/dL. For the same compound, the Cl (6 h) was 109.4 meq/L, the DBIL (6 h) was 0.012 mg/dL and the GLC (6 h) was 175 mg/dL. For the same compound, the IP (6 h) was 10.4 mg/dL, the LDH (6 h) was 54.4 IU/L and the Na (6 h) was 141.8 meq/L. It also gave an RALB (6 h) of 2.5 g/dL, a TBIL (6 h) of 0.042 mg/dL and a TC (6 h) of 76.4 mg/dL. For the same compound, the TG (6 h) was 56.2 mg/dL, the TP (6 h) was 5.2 g/dL and the gamma-GTP (6 h) was 1.2 IU/L. The TERMINAL_BW (9 h) was 193.9 g, the APTT (9 h) was 14.5 s and the Bas (9 h) was 0%. It also gave an Eos (9 h) of 0.8%, a Fbg (9 h) of 274.6 mg/dL and a Hb (9 h) of 13 g/dL. For the same compound, the Ht (9 h) was 38.6%, the Lym (9 h) was 79% and the MCH (9 h) was 22.2 pg. It also gave an MCHC (9 h) of 33.7%, an MCV (9 h) of 65.8 fL and a Mono (9 h) of 2.4%. It also gave a Neu (9 h) of 17.4%, a PT (9 h) of 12.1 s and a Plat (9 h) of 121.3 x10_4/uL. The RBC (9 h) was 586.6 x10_4/ul, the WBC (9 h) was 71.5 x10_2/uL and the KIDNEY_L (9 h) was 0.8 g. The KIDNEY_R (9 h) was 0.8 g, the KIDNEY_TOTAL (9 h) was 1.7 g and the LIVER (9 h) was 7.3 g. The ALT (9 h) was 43.8 IU/L, the AST (9 h) was 75.2 IU/L and the BUN (9 h) was 8.4 mg/dL. For the same compound, the CRE (9 h) was 0.2 mg/dL, the Cl (9 h) was 107 meq/L and the DBIL (9 h) was 0.01 mg/dL. It also gave a GLC (9 h) of 184.6 mg/dL, an IP (9 h) of 11.2 mg/dL and an LDH (9 h) of 59.8 IU/L. It also gave a Na (9 h) of 141.6 meq/L, an RALB (9 h) of 2.5 g/dL and a TBIL (9 h) of 0.044 mg/dL. The TC (9 h) was 79.4 mg/dL, the TG (9 h) was 39 mg/dL and the TP (9 h) was 5.3 g/dL. For the same compound, the gamma-GTP (9 h) was 1.4 IU/L, the TERMINAL_BW (24 h) was 193.1 g and the APTT (24 h) was 15.8 s. It also gave a Bas (24 h) of 0.2%, an Eos (24 h) of 1.2% and a Fbg (24 h) of 260.2 mg/dL. The Hb (24 h) was 13.2 g/dL, the Ht (24 h) was 39.4% and the Lym (24 h) was 80.8%. It also gave an MCH (24 h) of 21.5 pg, an MCHC (24 h) of 33.4% and an MCV (24 h) of 64.5 fL. For the same compound, the Mono (24 h) was 3.2%, the Neu (24 h) was 14.2% and the PT (24 h) was 12.9 s. For the same compound, the Plat (24 h) was 113.6 x10_4/uL, the RBC (24 h) was 611.2 x10_4/ul and the WBC (24 h) was 91.3 x10_2/uL. The KIDNEY_L (24 h) was 0.9 g, the KIDNEY_R (24 h) was 0.9 g and the KIDNEY_TOTAL (24 h) was 1.7 g. For the same compound, the LIVER (24 h) was 8.4 g, the ALT (24 h) was 45 IU/L and the AST (24 h) was 71.6 IU/L. The BUN (24 h) was 12.8 mg/dL, the CRE (24 h) was 0.2 mg/dL and the Cl (24 h) was 109.4 meq/L. For the same compound, the DBIL (24 h) was 0.018 mg/dL, the GLC (24 h) was 185.8 mg/dL and the IP (24 h) was 8.3 mg/dL. The LDH (24 h) was 54 IU/L, the Na (24 h) was 143.2 meq/L and the RALB (24 h) was 2.6 g/dL. The TBIL (24 h) was 0.044 mg/dL, the TC (24 h) was 51.4 mg/dL and the TG (24 h) was 81 mg/dL. The TP (24 h) was 5.4 g/dL and the gamma-GTP (24 h) was 1 IU/L.
